Results published in patent publication US20110275685A1, “SALT AND POLYMORPHS OF A KINESIN INHIBITOR COMPOUND” (priority 2009, published 2011).
Counter-ions that a name gives are not always drawn. Like-named read-outs stand apart in the source and are kept apart here.

How the values were obtained:
[1] = Solubility of the obtained material; type: physicochemical; conditions: thermodynamic from solid
Experimental: 2.40 g of amorphous N-((S)-3-amino-4-fluorobutyl)-N-((R)-1-(1-benzlyl-4-(2,5-difluoro-phenyl)-1H-imidazol-2-yl)-2,2-dimethylpropyl)-2-hydroxyacetamide were dissolved at 50° C. in 9 ml acetonitrile/water 95:5 v/v having a water activity of 0.6, and stirred. Within about 1 minute, a suspension was formed. Another 6 ml of acetonitrile/water 95:5 v/v were added. Subsequently, the suspension was cooled to room temperature in about 1 hour and stirred for 14 hours. Then, the suspension was filtered and air dried for about 5 minutes. Yield: 1.82 g (75%). The obtained material was analyzed by X-ray diffraction (FIG. 1).

[2] = Weight loss on drying by thermogravimetry (hygroscopicity); type: physicochemical; conditions: for hygroscopicity: judged from weight loss as prepared vs 1 day at 92% relative humidity
Text: The weight loss (%) on drying, measured by thermogravimetry, of the salt as prepared was 1.12%. If kept for 1 day at 92% relative humidity, the weight loss was 1.71%.
The weight loss (%) on drying, measured by thermogravimetry, of the salt as prepared was 2.08%. If kept for 1 day at 92% relative humidity, the weight loss was 2.21%.
The weight loss (%) on drying, measured by thermogravimetry, of the salt as prepared was 1.76%. If kept for 1 day at 92% relative humidity, the weight loss was 2.14%.

[3] = Stability of liquid formulations of the salts; conditions: for stability in DMSO: either diluted or not
Experimental: From the mesylate, tosylate and hippurate salts as prepared above, liquid formulations were prepared by dissolving/suspending these salts in a solvent/suspension medium. Stability tests were made on these liquid formulations. The amount of degradation products and the degree of discoloration were established.

[4] = Solid state stability of the salts (HPLC, colour); conditions: Bulk (HPLC)
Text: Tests for solid state stability were made for the mesylate, tosylate and hippurate salts as prepared above.

[5] = 0.1% solutions or suspensions, 1 week, 50° C., Methanol
[6] = 0.1% solutions or suspensions, 1 week, 50° C., pH 3
[7] = 0.1% solutions or suspensions, 1 week, 50° C., pH 4.5
[8] = 0.1% solutions or suspensions, 1 week, 50° C., pH 5
[9] = 0.1% solutions or suspensions, 1 week, 50° C., pH 7
[10] = 2% solutions or suspensions, 1 day, room temperature, DMSO
[11] = 2% solutions or suspensions, 1 day, room temperature, Dilution pH 6.8 (diluted with buffer 1:100)
[12] = 5% solutions, 1 day, room temperature, DMSO
[13] = 5% solutions, 1 day, room temperature, Dilution pH 6.8
[14] = 2 weeks, 50° C., tight container
[15] = Xenon light (approx. 1200 kLuxh)

SMILES: CC(C)(C)[C@H](c1nc(-c2cc(F)ccc2F)cn1Cc1ccccc1)N(CC[C@H](N)CF)C(=O)CO [crystalline form D, N-((S)-3-amino-4-fluorobutyl)-N-((R)-1-(1-benzlyl-4-(2,5-difluorophenyl)-1H-imidazol-2-yl)-2,2-dimethylpropyl)-2-hydroxyacetamide mesylate]
- solubility ([1]; 0.1 N HCl, pH 1, simulated gastric fluid, read-out: solubility in 0.1 N HCl): 1400 µg/mL
- solubility ([1]; buffer pH 6.8, pH 6.8, aqueous buffer, read-out: solubility in buffer with pH 6.8): 10 µg/mL
- solubility ([1]; water, read-out: solubility in water): 4400 µg/mL

SMILES: CC(C)(C)[C@H](c1nc(-c2cc(F)ccc2F)cn1Cc1ccccc1)N(CC[C@H](N)CF)C(=O)CO [Hippurate, N-((S)-3-amino-4-fluorobutyl)-N-((R)-1-(1-benzlyl-4-(2,5-difluorophenyl)-1H-imidazol-2-yl)-2,2-dimethylpropyl)-2-hydroxyacetamide]
- hygroscopicity [2]: low hygroscopicity
- weight loss (%) on drying, measured by thermogravimetry ([2]; kept for 1 day at 92% relative humidity, listed as hippurate salt): 2.14%
- weight loss (%) on drying, measured by thermogravimetry ([2]; salt as prepared, listed as hippurate salt): 1.76%
- Amount of degradation products [%] [3, 5]: 11.81%
- Amount of degradation products [%] [3, 6]: 0.48%
- Amount of degradation products [%] [3, 7]: 1.03%
- Amount of degradation products [%] [3, 8]: 1.80%
- Amount of degradation products [%] [3, 9]: 5.32%
- Amount of degradation products [%] [3, 10]: 0.78%
- Amount of degradation products [%] [3, 11]: 0.82%
- Amount of degradation products [%] [3, 12]: 0.94%
- Amount of degradation products [%] [3, 13]: 0.84%
- stability in DMSO [3]: very stable
- Amount of degradation products [%] ([4]; 2 weeks, 50° C., 75% r.h.): 1.02%
- Amount of degradation products [%] [4, 14]: 0.79%
- Amount of degradation products [%] [4, 15]: 0.43%

SMILES: CC(C)(C)[C@H](c1nc(-c2cc(F)ccc2F)cn1Cc1ccccc1)N(CC[C@H](N)CF)C(=O)CO [Mesylate, N-((S)-3-amino-4-fluorobutyl)-N-((R)-1-(1-benzlyl-4-(2,5-difluorophenyl)-1H-imidazol-2-yl)-2,2-dimethylpropyl)-2-hydroxyacetamide]
- hygroscopicity [2]: low hygroscopicity
- weight loss (%) on drying, measured by thermogravimetry ([2]; kept for 1 day at 92% relative humidity, listed as mesylate salt): 2.21%
- weight loss (%) on drying, measured by thermogravimetry ([2]; salt as prepared, listed as mesylate salt): 2.08%
- Amount of degradation products [%] [3, 5]: 0.21%
- Amount of degradation products [%] [3, 6]: 0.25%
- Amount of degradation products [%] [3, 7]: 0.69%
- Amount of degradation products [%] [3, 8]: 0.71%
- Amount of degradation products [%] [3, 9]: 3.87%
- Amount of degradation products [%] [3, 10]: 0.07%
- Amount of degradation products [%] [3, 11]: 0.19%
- Amount of degradation products [%] [3, 12]: <0.05%
- Amount of degradation products [%] [3, 13]: 0.30%
- stability in DMSO [3]: very stable
- stability in methanol ([3]; in methanol): very stable
- Amount of degradation products [%] ([4]; 2 weeks, 50° C., 75% r.h.): <0.05%
- Amount of degradation products [%] [4, 14]: 0.07%
- Amount of degradation products [%] [4, 15]: <0.05%

SMILES: CC(C)(C)[C@H](c1nc(-c2cc(F)ccc2F)cn1Cc1ccccc1)N(CC[C@H](N)CF)C(=O)CO [Tosylate, N-((S)-3-amino-4-fluorobutyl)-N-((R)-1-(1-benzlyl-4-(2,5-difluorophenyl)-1H-imidazol-2-yl)-2,2-dimethylpropyl)-2-hydroxyacetamide]
- hygroscopicity [2]: low hygroscopicity
- weight loss (%) on drying, measured by thermogravimetry ([2]; kept for 1 day at 92% relative humidity, listed as tosylate salt): 1.71%
- weight loss (%) on drying, measured by thermogravimetry ([2]; salt as prepared, listed as tosylate salt): 1.12%
- Amount of degradation products [%] (1 week, 0.1 %): 0.35%
- Amount of degradation products [%] (1 week, 0.1 %, pH 3): 0.27%
- Amount of degradation products [%] (1 week, 0.1 %, pH 4.5): 0.59%
- Amount of degradation products [%] (1 week, 0.1 %, pH 5): 1.81%
- Amount of degradation products [%] (1 week, 0.1 %, pH 7): 7.60%
- Amount of degradation products [%] (1 day, 0.02 %, pH 6.8): 0.33%
- Amount of degradation products [%] (1 day, 2 %): 0.14%
- Amount of degradation products [%] (1 day, 5 %): 0.15%
- Amount of degradation products [%] (1 day, pH 6.8): 0.11%
